The results in this text go back to patent US20060116407A1, “Amide derivatives” (priority 2004, published 2006).

The subject of one experiment is HEK293 cells. The experiment is described as follows: Viability assay of HEK293 cells (CellTiter-Glo). In kind it is cell-based. The settings on record: Homo sapiens, 168 h, 7 days, 3 μM to 0.00015 μM, luminescence. Here is the method:
Viability Assay of HEK293 Cells
A viability assay was performed using the CellTiter-Glo™ Luminescent Cell Viability Assay (see Promega Corporation's Technical Publication No. 288, pp. 1-11 [revised 2.04] which is hereby incorporated by reference in its entirety). This assay is a homogeneous method of determining the number of viable cells in culture based on quantitation of the ATP present, which signals the presence of metabolically active cells. The assay is designed for use with multiwell formats, making it ideal for automated high-throughput screening (HTS), cell proliferation and cytotoxicity assays. The homogeneous assay procedure involves adding a single reagent (containing luciferase, luciferan substrate, and buffer) directly to cells cultured in serum-supplemented medium. Cell washing, removal of medium and multiple pipetting steps are not required. The system detects as few as 15 cells/well in a 384-well format in 10 minutes after adding reagent and mixing.
The homogeneous “add-mix-measure” format results in cell lysis and generation of a luminescent signal proportional to the amount of ATP present. The amount of ATP is directly proportional to the number of cells present in culture. The above-referenced assay generates a “glow-type” luminescent signal, produced by the luciferase reaction, which has a half-life generally greater than five hours, depending on cell type and medium used. The extended half-life eliminates the need to use reagent injectors and provides flexibility for continuous or batch mode processing of multiple plates. The unique homogeneous format avoids errors that may be introduced by other ATP measurement methods that require multiple steps.
HEK293 cells (human embryonic kidney cell line transformed by Adenovirus 5 fragments, ATCC-No. CRL 1573) were cultivated in Dulbecco's Modified Eagle Medium (DMEM) (1×) liquid (high glucose) (which includes L-Alanyl-L-Glutamine [a stabilized a form of L-Glutamine], 4500 mg/L glucose, and 110 mg/L sodium pyruvate) from Invitrogen Corporation (Invitrogen Catalog Number 31966-021 [now 10569-010] which is hereby incorporated by reference in its entirety), 5% Fetal Calf Serum (FCS, Sigma Cat-No. F4135 (FBS) which is hereby incorporated by reference in its entirety), and 100 Units/ml penicillin/100 μg/ml streptomycin(=Pen/Strep from Invitrogen Cat. No. 15140 which is hereby incorporated by reference in its entirety). For the assay the cells were seeded in 384 well plates, 5000 cells per well, in the same medium. The next day the test compounds were added in various concentrations ranging from 3 μM to 0.00015 μM (10 concentrations, 1:3 diluted). After 7 days the above viability assay was performed in accordance with the following steps: • Step 1: The cell-plate was equilibrated to room temperature for approximately 30 minutes and than the assay reagent was added. • Step 2: The contents were carefully mixed for 15 minutes to induce cell lysis. • Step 3: After 45 minutes the luminescent signal was measured in Victor 2, (scanning multiwell spectrophotometer, Wallac). Details: 1st Day: • Medium: Dulbecco's Modified Eagle Medium (DMEM) (1×) liquid (high glucose) (which includes L-Alanyl-L-Glutamine [a stabilized a form/source of L-Glutamine], 4500 mg/L glucose, and 110 mg/L sodium pyruvate) from Invitrogen Corporation (Invitrogen Catalog Number 31966-021 [now 10569-010]), 5% Fetal Calf Serum (FCS, Sigma Cat-No. F4135 (FBS)), and Pen/Strep (Invitrogen Cat. No. 15140). • HEK293 (ATCC-No. CRL 1573): 5000 cells in 60 μl per well of 384 well plate. (Greiner 781098, white plates) • Incubate 24 h at 37° C., 5% CO2 2nd Day: Induction (Substance Testing):
In general the dilution steeps are 1:3 a) Add 8 μl of 10 mM stock solution of compound to 72 μl DMSO b) dilute 9×1:3 (always 30 μl to 60 μl DMSO) in this DMSO dilution row (results in 10 wells with concentrations from 1000 μM to 0.06 μM) c) dilute each concentration 1: 4.8 (10 μl compound dilution to 38 μl medium) […]
On the technique in general: Cellular ATP, detected with luciferase, serves as a proxy for viable cell number.

Another experiment deals with T1, HER-2 (Homo sapiens, UniProt P04626).
T1 construct: endogenous in cells; host or cells: Calu-3 (ATCC HTB-55)
T1 sequence (P04626 23-1255): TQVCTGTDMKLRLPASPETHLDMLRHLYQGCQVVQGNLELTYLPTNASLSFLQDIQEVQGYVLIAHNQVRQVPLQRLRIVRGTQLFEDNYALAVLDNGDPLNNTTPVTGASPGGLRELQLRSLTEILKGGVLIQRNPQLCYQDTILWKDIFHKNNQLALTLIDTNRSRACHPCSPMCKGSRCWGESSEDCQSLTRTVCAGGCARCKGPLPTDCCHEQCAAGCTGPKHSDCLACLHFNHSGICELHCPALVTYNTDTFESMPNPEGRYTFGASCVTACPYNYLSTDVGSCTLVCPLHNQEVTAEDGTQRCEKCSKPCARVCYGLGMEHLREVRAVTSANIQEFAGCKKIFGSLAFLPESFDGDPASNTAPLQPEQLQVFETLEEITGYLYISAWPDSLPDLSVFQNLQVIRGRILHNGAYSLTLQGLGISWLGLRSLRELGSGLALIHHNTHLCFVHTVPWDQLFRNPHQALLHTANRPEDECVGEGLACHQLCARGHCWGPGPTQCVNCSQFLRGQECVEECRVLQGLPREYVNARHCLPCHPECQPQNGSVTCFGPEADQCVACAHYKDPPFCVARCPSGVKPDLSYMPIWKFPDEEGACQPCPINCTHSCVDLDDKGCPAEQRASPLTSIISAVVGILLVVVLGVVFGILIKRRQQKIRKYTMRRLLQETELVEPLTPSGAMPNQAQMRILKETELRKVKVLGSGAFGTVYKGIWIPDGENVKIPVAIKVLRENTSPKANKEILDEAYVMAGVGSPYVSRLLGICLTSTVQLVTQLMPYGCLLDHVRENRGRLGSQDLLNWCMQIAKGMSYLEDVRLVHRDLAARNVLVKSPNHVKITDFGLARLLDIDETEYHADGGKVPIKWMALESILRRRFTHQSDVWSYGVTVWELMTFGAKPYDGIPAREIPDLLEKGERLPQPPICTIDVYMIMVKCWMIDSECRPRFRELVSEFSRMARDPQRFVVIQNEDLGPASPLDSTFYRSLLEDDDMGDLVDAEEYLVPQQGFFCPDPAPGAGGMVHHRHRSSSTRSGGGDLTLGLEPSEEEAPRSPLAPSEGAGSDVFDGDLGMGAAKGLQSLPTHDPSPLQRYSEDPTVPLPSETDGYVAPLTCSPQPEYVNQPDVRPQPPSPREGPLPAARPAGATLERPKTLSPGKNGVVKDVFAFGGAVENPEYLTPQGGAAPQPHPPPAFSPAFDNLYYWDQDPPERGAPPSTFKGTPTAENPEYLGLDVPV
The experiment is described as follows: Inhibition of HER-2 phosphorylation in Calu-3 tumor cell line. It is filed as cell-based. The following applies: Calu-3 cells, compound 1 μM, 16 h, pY 1248 in HER-2, percentage of DMSO control; for inhibition at 1 µM: read-out: Percent inhibition of HER2-phosphorylation (compound concentration 1 μM). Here is the method:
Inhibition of HER-2 Phosphorylation in Calu-3 Tumor Cell Line
2×10^5 Calu-3 (ATTC HTB-55) cells per well were plated in a 12-well plate. After 4 days cells were starved for 16 h in Dulbecco's Modified Eagle Medium (DMEM)/0.5% Fetal Calf Serum (FCS)/1% Glutamine. During this 16 h period cells were incubated with a solution of the test compound in dimethylsulfoxide(DMSO), so that the final concentration of the compound is 1 μM and the final volume of DMSO is 0.5%. Afterwards cells were lysed in lyses buffer containing 1% Triton®X-100, 10% Glycerol, 1 mM Ethylene glycol-bis(2-aminoethylether)-N,N,N′,N′-tetraacetic acid (EGTA), 1.5 mM MgCl2, 150 mM NaCl, 50 mM 4-(2-hydroxyethyl)-1-piperazineethanesulfonic acid (HEPES) buffer pH 7.5, 1 mM Phenylmethylsulfonyl fluoride (PMSF), 10 ∥g/mL Aprotinin and […] Orthovanadate. Cell lysates were analyzed on a Sodium Dodecyl Sulfate Polyacrylamide Gel Electrophoresis (SDS PAGE) and after transfer to a nitrocellulose membrane detected with an antibody specifically recognizing the pY 1248 in HER-2. Inhibition of HER-2 phosphorylation is calculated as percentage of the control, which is treated with DMSO only.

A word on the IC50: it is the midpoint of a concentration-inhibition curve.

The structures appear in SMILES notation.

Turning to `O=C(Nc1nc(COc2ccc(CCCCn3ccnn3)cc2)cs1)c1ccc(Cl)cc1` [Example 52-5, 4-Chloro-N-{4-[4-(4-[1,2,3]triazol-1-yl-butyl)-phenoxymethyl]-thiazol-2-yl}-benzamide], the IC50 in the experiment on HEK293 cells lay in the range of 5 to 500 nM. The inhibition at 1 µM at HER-2 is 70 to 80%. In the case of `O=C(Nc1ccc(C(F)(F)F)cc1)c1coc(COc2ccc(CCCCn3ccnn3)cc2)n1` [Example 13, 2-[4-(4-[1,2,3]Triazol-1-yl-butyl)-phenoxymethyl]-oxazole-4-carboxylic acid (4-trifluoromethyl-phenyl)-amide], the IC50 in the experiment with HEK293 cells is 5 to 500 nM. The inhibition at 1 µM on HER-2 was over 80%. On to `CN(C(=O)c1coc(COc2ccc(CCCCn3ccnn3)cc2)n1)c1ccc(Cl)cc1` [Example 2, 2-[4-(4-[1,2,3]Triazol-1-yl-butyl)-phenoxymethyl]-oxazole-4-carboxylic acid (4-chloro-phenyl)-methyl-amide], for which the inhibition at 1 µM on HER-2 was 55 to 70%. For the compound `O=C(Nc1ccc(OC(F)(F)F)cc1)c1nc(COc2ccc(CCCCn3ccnn3)cc2)cs1` [Example 39, 4-[4-(4-[1,2,3]Triazol-1-yl-butyl)-phenoxymethyl]-thiazole-2-carboxylic acid (4-trifluoromethoxy-phenyl)-amide], in the experiment with HEK293 cells, the IC50 is 5 to 500 nM. Moreover, the inhibition at 1 µM on HER-2 came to 87%. As to `O=C(Nc1ccc(SC(F)(F)F)cc1)c1coc(COc2ccc(CCCCn3ccnn3)cc2)n1` [Example 11, 2-[4-(4-[1,2,3]Triazol-1-yl-butyl)-phenoxymethyl]-oxazole-4-carboxylic acid (4-trifluoro-methylsulfanyl-phenyl)-amide], the “Percent inhibition of HER2-phosphorylation (compound concentration 1 μM)” value on HER-2 is given as 69%. On to `FC(F)(F)c1ccc(C=Cc2nc(COc3ccc(CCCCn4ccnn4)cc3)co2)cc1` [reference compound, 1-[4-(4-{2-[2-(4-Trifluoromethyl-phenyl)-vinyl]-oxazol-4-ylmethoxy}-phenyl)-butyl]-1H-[1,2,3]triazole, reference compound], for which the inhibition at 1 µM at HER-2 came to 52%. In the experiment on HEK293 cells, `O=C(Nc1ccc(S(F)(F)(F)(F)F)cc1)c1nc(COc2ccc(CCCCn3ccnn3)cc2)cs1` [Example 40, 4-[4-(4-[1,2,3]Triazol-1-yl-butyl)-phenoxymethyl]-thiazole-2-carboxylic acid (4-pentafluorosulfanyl-phenyl)-amide] returned an IC50 of 5 to 500 nM. The inhibition at 1 µM at HER-2 fell in the range of 70 to 80%. Compound `O=C(Nc1ccc(OC(F)(F)F)cc1)c1csc(COc2ccc(CCCCn3ccnn3)cc2)n1` [Example 43, 2-[4-(4-[1,2,3]Triazol-1-yl-butyl)-phenoxymethyl]-thiazole-4-carboxylic acid (4-trifluoromethoxy-phenyl)-amide] yielded an IC50 with HEK293 cells of 500 to 3000 nM. At HER-2, the inhibition at 1 µM was over 80%. On the same counts, the results for `Cc1ccc(NC(=O)c2coc(COc3ccc(CCCCn4ccnn4)cc3)n2)cc1F` [Example 36, 2-[4-(4-[1,2,3]Triazol-1-yl-butyl)-phenoxymethyl]-oxazole-4-carboxylic acid (3-fluoro-4-methyl-phenyl)-amide] are 5 to 500 nM and 70 to 80%. Consider `COc1ccc(NC(=O)c2coc(COc3ccc(CCCCn4ccnn4)cc3)n2)cc1` [Example 37, 2-[4-(4-[1,2,3]Triazol-1-yl-butyl)-phenoxymethyl]-oxazole-4-carboxylic acid (4-methoxy-phenyl)-amide], for which the inhibition at 1 µM at HER-2 was 70 to 80%. The compound `O=C(Nc1nc(COc2ccc(CCCCn3ccnn3)cc2)cs1)c1cc(F)ccc1F` [Example 52-15, 2,5-Difluoro-N-{4-[4-(4-[1,2,3]triazol-1-yl-butyl)-phenoxymethyl]-thiazol-2-yl}-benzamide] displayed an IC50 in the experiment on HEK293 cells of 5 to 500 nM. In turn, `CN(C(=O)c1coc(COc2ccc(CCCCn3ccnn3)cc2)n1)c1ccccc1` [Example 29, 2-[4-(4-[1,2,3]Triazol-1-yl-butyl)-phenoxymethyl]-oxazole-4-carboxylic acid methyl-phenyl-amide] had an IC50 in the experiment with HEK293 cells of 500 to 3000 nM. The compound `O=C(Nc1c(Cl)cccc1Cl)c1coc(COc2ccc(CCCCn3ccnn3)cc2)n1` [Example 44, 2-[4-(4-[1,2,3]Triazol-1-yl-butyl)-phenoxymethyl]-oxazole-4-carboxylic acid (2,6-dichloro-phenyl)-amide] showed an IC50 in the experiment on HEK293 cells of 5 to 500 nM. In the experiment on HEK293 cells, `O=C(Nc1ccc(F)c(Cl)c1)c1coc(COc2ccc(CCCCn3ccnn3)cc2)n1` [Example 12, 2-[4-(4-[1,2,3]Triazol-1-yl-butyl)-phenoxymethyl]-oxazole-4-carboxylic acid (3-chloro-4-fluoro-phenyl)-amide] yielded an IC50 of 5 to 500 nM. `CSc1ccc(NC(=O)c2coc(COc3ccc(CCCCn4ccnn4)cc3)n2)cc1` [Example 24, 2-[4-(4-[1,2,3]Triazol-1-yl-butyl)-phenoxymethyl]-oxazole-4-carboxylic acid (4-methylsulfanyl-phenyl)-amide] gave an IC50 with HEK293 cells of 1060 nM. This lies in the single-digit micromolar range. Take `O=C(Nc1ccc(OC(F)(F)F)cc1)c1coc(COc2ccc(CCCCn3ccnn3)cc2)n1` [Example 10, 2-[4-(4-[1,2,3]Triazol-1-yl-butyl)-phenoxymethyl]-oxazole-4-carboxylic acid (4-trifluoro-methoxy-phenyl)-amide]: the “Percent inhibition of HER2-phosphorylation (compound concentration 1 μM)” value on HER-2 is listed as 75%. In the experiment on HEK293 cells, `O=C(Nc1ccc(C(F)(F)F)cc1[N+](=O)[O-])c1coc(COc2ccc(CCCCn3ccnn3)cc2)n1` [Example 4, 2-[4-(4-[1,2,3]Triazol-1-yl-butyl)-phenoxymethyl]-oxazole-4-carboxylic acid (2-nitro-4-trifluoromethyl-phenyl)-amide] registered an IC50 of 127 nM. In the experiment with HEK293 cells, `O=C(Nc1nc(COc2ccc(CCCCn3ccnn3)cc2)cs1)c1cccc(Cl)c1` [Example 52-12, 3-Chloro-N-{4-[4-(4-[1,2,3]triazol-1-yl-butyl)-phenoxymethyl]-thiazol-2-yl}-benzamide] returned an IC50 of 5 to 500 nM. For the compound `O=C(Nc1ccc(OC(F)F)cc1)c1coc(COc2ccc(CCCCn3ccnn3)cc2)n1` [Example 22, 2-[4-(4-[1,2,3]Triazol-1-yl-butyl)-phenoxymethyl]-oxazole-4-carboxylic acid (4-difluoromethoxy-phenyl)-amide], the inhibition at 1 µM at HER-2 lay in the range of 55 to 70%. As to `O=C(Nc1nc(COc2ccc(CCCCn3ccnn3)cc2)cs1)c1cc(F)cc(F)c1` [Example 52-23, 3,5-Difluoro-N-{4-[4-(4-[1,2,3]triazol-1-yl-butyl)-phenoxymethyl]-thiazol-2-yl}-benzamide], the IC50 in the experiment with HEK293 cells is 5 to 500 nM.
